Patent US20060156421A1, “High throughput screening methods for anti-metastatic compounds” (priority 2004, published 2006)

Columns and labels:
[1] = system: dRet^MEN2B; experiment: Drosophila screening: rough eye phenotype of GMR-dRet^MEN2B flies fed compound in microtiter wells; type: in vivo, Drosophila melanogaster
Experimental: (§1) Accordingly, methods, related apparatus and kits for high throughput screening assays involve the preparation of microtiter plates each with multiple wells, wherein each well initially contains one or more Drosophila embryos with a transgene and an amount of a Drosophila growth medium. The embryos develop while feeding on the growth medium. The precise age of the embryos at the time they are plated matters less than the fact that they are all about the same age, to permit accurate evaluation of the possible effects of the candidate compound on larval and pupal development.
(§2) To prepare the microtiter plates, for example, 96-well microtiter plates are used, such as those commonly commercially available and typically used for various laboratory assay techniques, including other high throughput drug assay techniques. Into each well is pipetted 50-100 μl of standard Drosophila growth medium. An exemplary range of about 50 to about 100 μl is a balance between (i) providing sufficient food so as not to place undue feeding stress on the developing flies and (ii) providing sufficient air space for the third larval instars to find sufficient wall space to pupate and for minimal stress on the developing larvae and pupae. Any one of several standard Drosophila growth medium recipes as known in the art of breeding Drosophila for research can be used.
In an exemplary embodiment, a candidate compound, or cocktail of more than one compound, that has been selected for screening is prepared in EtOH or DMSO/aqueous solution. In an exemplary embodiment, EtOH is used. Although DMSO can be used, it can be toxic if it reaches final concentrations of more than 0.3% of the growth medium. The compound in solution is added and allowed to diffuse through the growth medium for an initial period of about 16 to about 24 hours. Alternatively, the compound in solution is mixed with the food by pipetting, by shaking, or by sonicating. […]

[2] = system: Ret; details: previously tested, Carlomagno et al., 2002; cited from earlier work
[3] = system: Drosophila; details: Drosophila melanogaster, in vivo
Description: Lethality of candidate compounds for Drosophila can be used to detect and quantify toxicity of candidate compounds. Well known standard statistical methods are used to help distinguish chance results from real toxic effects. Lethality is quantified, for example, by determining the number of Drosophila that fail to develop successfully to adulthood and applying suitable statistical analyses to determine statistical significance. Lethal dose evaluations can be used to quantify the extent of toxicity. […] In another exemplary example, the emergence of most Drosophila adults within a microwell indicates a lowered probability that an introduced compound is toxic.
FIG. 3 illustrates in part the results of screening compound ZD6474 according to the screening methods of the present invention. […] Therefore, the estimated therapeutic index (ratio of concentrations that are toxic to Drosophila to concentrations that reduce the retinal phenotype is […].

[4] = system: dRet; experiment: Drosophila screening: rough eye phenotype of GMR-dRet flies fed compound in microtiter wells; type: in vivo, Drosophila melanogaster; details: compound in growth medium
Experimental: as §1
as §2, with “used. […]” for “used.”

[5] = system: VEGF-class receptors; details: literature citations; cited from earlier work

In the case of `COc1cc2c(Nc3ccc(Br)cc3F)ncnc2cc1OCC1CCN(C)CC1` [ZD6474], the “inhibition of severity of the rough eye phenotype of dRet^MEN2B” value ([1]; Drosophila eye, compound in growth medium) was “strongly inhibit”, the “rescue of the dRet^MEN2B phenotype” value ([1]; FIG. 3 panels, varying concentration) was “concentration-dependent” and the “doses at which at least partial rescue was observed” value ([1]; retinal phenotype, lowest effective concentration) was no less than 0.04 mM. For the same molecule, the “effect on Ret activity in a tissue culture model” value [2] was “reduce Ret activity”, the “concentrations at which toxicity was observed” value [3] was no less than 2500 µM and the “estimated therapeutic index (ratio of concentrations toxic to Drosophila to concentrations that reduce the retinal phenotype)” value [3] was 31. The “inhibition of severity of the rough eye phenotype of dRet” value [4] was “strongly inhibit” and the “efficacy for VEGF-class receptors” value [5] was “some efficacy”.
